Results: BindingDB's records for doi:10.1021/jm00106a047 (Purdue University, 1991)

What follows are compounds tested against Tyrosine-protein kinase Lck (Bos taurus) (assay: Ability to inhibit protein-tyrosine kinase activity of p56lck (isolated from bovine thymus) in vitro.).

Row | IC50 [mM] | SMILES
1 | > 2 | O=C(O)c1c(-c2ccc([N+](=O)[O-])cc2)oc2cc(O)cc(=O)c-2c1O
2 | > 2 | COC(=O)c1c(-c2ccc(NC(=O)c3cc(OC)c(OC)c(OC)c3)cc2)oc2ccccc2c1=O
3 | > 2 | COc1ccc2c(=O)c(C(=O)O)c(-c3ccc([N+](=O)[O-])cc3)oc2c1
4 | > 2 | COC(=O)c1c(-c2ccc(NC(C)=O)cc2)oc2ccc(OC)cc2c1=O
5 | 0.138 | Nc1ccc(-c2cc(=O)c3ccc(O)cc3o2)cc1 [7-Hydroxy-flavone, 6]
6 | > 2 | O=c1cc(-c2ccc([N+](=O)[O-])cc2)oc2ccc(O)cc12
7 | > 2 | COC(=O)CC(=O)c1ccccc1O
8 | > 2 | COc1ccc2oc(-c3ccc([N+](=O)[O-])cc3)c(C(=O)O)c(=O)c2c1
9 | 0.81 | COC(=O)c1c(-c2ccc(N)cc2)oc2ccccc2c1=O
10 | > 2 | COC(=O)c1c(-c2ccc([N+](=O)[O-])cc2)oc2cc(OCc3ccccc3)cc(OCc3ccccc3)c2c1=O
11 | > 2 | COC(=O)c1c(-c2ccc(OC)c(OC)c2)oc2ccccc2c1=O [methyl 2-(3,4-dimethoxyphenyl)-4-oxo-4H-chromene-3-carboxylate]
12 | > 2 | COc1ccc(-c2oc3ccccc3c(=O)c2C(=O)O)cc1OC [2-(3,4-Dimethoxy-phenyl)-4-oxo-4H-chromene-3-carboxylic acid]
13 | > 2 | COC(=O)c1c(-c2ccc(O)cc2)oc2cc(OC)ccc2c1=O
14 | > 2 | COC(=O)c1c(-c2ccc([N+](=O)[O-])cc2)oc2cc(OC)ccc2c1=O [methyl 7-methoxy-2-(4-nitrophenyl)-4-oxo-4H-chromene-3-carboxylate]
15 | > 2 | COC(=O)c1c(-c2cc(OC)c(OC)c(OC)c2)oc2ccccc2c1=O
16 | > 2 | O=C(O)c1c(-c2ccc([N+](=O)[O-])cc2)oc2ccccc2c1=O [2-(4-nitrophenyl)-4-oxo-4H-chromene-3-carboxylic acid]
17 | > 2 | COc1cc(-c2oc3ccccc3c(=O)c2C(=O)O)cc(OC)c1OC
18 | > 2 | COC(=O)c1c(-c2ccc(OC)cc2)oc2ccccc2c1=O [methyl 2-(4-methoxyphenyl)-4-oxo-4H-chromene-3-carboxylate]
19 | > 2 | COC(=O)c1c(-c2ccc(O)cc2)oc2ccc(OC)cc2c1=O

Row | IC50 [mM] | SMILES
20 | > 2 | COC(=O)c1c(-c2ccc(Br)cc2)oc2ccccc2c1=O
21 | 1.03 | COc1ccc2c(=O)c(C(=O)O)c(-c3ccc(O)cc3)oc2c1
22 | > 2 | COC(=O)CC(=O)c1cc(OC)ccc1O
23 | 1.16 | COC(=O)CC(=O)c1ccc(OC)cc1O
24 | > 2 | COC(=O)CC(=O)c1ccc(O)c(O)c1O
25 | > 2 | COc1cc(OC)cc(-c2oc3ccccc3c(=O)c2C(=O)O)c1
26 | 1.59 | O=C(O)c1c(-c2ccc(O)cc2)oc2ccccc2c1=O
27 | > 2 | COC(=O)c1c(-c2cc(OC)cc(OC)c2)oc2ccccc2c1=O
28 | > 2 | O=c1cc(-c2ccc([N+](=O)[O-])cc2)oc2cc(O)ccc12
29 | > 2 | COc1ccc(-c2oc3ccccc3c(=O)c2C(=O)O)cc1 [2-(4-methoxyphenyl)-4-oxo-4H-chromene-3-carboxylic acid]
30 | > 2 | COC(=O)c1c(-c2ccc(OCc3ccccc3)cc2)oc2ccc(OC)cc2c1=O [2-(4-Benzyloxy-phenyl)-6-methoxy-4-oxo-4H-chromene-3-carboxylic acid methyl ester]
31 | > 2 | CCOC(=O)CC(=O)c1c(O)cc(OCc2ccccc2)cc1OCc1ccccc1
32 | 0.0012 | Nc1ccc(-c2cc(=O)c3cc(O)ccc3o2)cc1 [2-(4-aminophenyl)-6-hydroxy-4H-chromen-4-one]
33 | > 2 | CCOC(=O)CC(=O)c1ccccc1O
34 | 0.026 | COc1cc(-c2cc(=O)c3ccccc3o2)cc(OC)c1O [3',5'-dimethoxy-4'-hydroxyflavone]
35 | > 2 | COC(=O)c1c(-c2ccc(OCc3ccccc3)cc2)oc2ccccc2c1=O
36 | 0.439 | COC(=O)c1c(-c2ccc(O)cc2)oc2ccccc2c1=O
37 | > 2 | O=C(O)c1c(-c2ccc(Br)cc2)oc2ccccc2c1=O
38 | > 2 | COC(=O)c1c(-c2ccc([N+](=O)[O-])cc2)oc2ccccc2c1=O
